According to PubChem BioAssay AID248 (DTP/NCI, 2004):
Several values for one entry are separate records, joined by “and”; a condition that tells them apart may be missing. Equal values may be shown once. Toxic doses and inconclusive results are not listed. Rule as the data show it: active = T/C of 150% or more; inactive = T/C below 125%.

Tested on: L1210 leukemia ip in BDF1 mice, survival T/C
Assay: NCI In Vivo Anticancer Drug Screen. Data for tumor model L1210 Leukemia (intraperitoneal) in B6D2F1 (BDF1) mice
Settings: endpoint: mean survival time, higher = longer survival
How it was run: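 Transplanted-tumor mice were given test agent; controls received vehicle only. Survival readings from the two groups were divided (treated over control).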

[1] = dose: 100.0 mg/kg/injection, schedule: Q04DX003 (ip), vehicle: saline
[2] = dose: 200.0 mg/kg/injection, schedule: Q04DX003 (ip), vehicle: saline
[3] = dose: 400.0 mg/kg/injection, schedule: Q04DX003 (ip), vehicle: saline
[4] = dose: 75.0 mg/kg/injection, schedule: Q04DX003 (ip), vehicle: saline
[5] = dose: 150.0 mg/kg/injection, schedule: Q04DX003 (ip), vehicle: saline

Measured: T/C

COC(CCC#N)c1ccc(C)cc1 (stereo not drawn)
inactive: dose: 100.0 mg/kg/injection, schedule: Q01DX009 (sc), vehicle: olive oil, sesame oil, peanut oil 102 % of control | dose: 100.0 mg/kg/injection, schedule: Q04DX003 (sc), vehicle: olive oil, sesame oil, peanut oil 108 % of control | dose: 200.0 mg/kg/injection, schedule: Q01DX009 (sc), vehicle: olive oil, sesame oil, peanut oil 91 % of control | dose: 200.0 mg/kg/injection, schedule: Q04DX003 (sc), vehicle: olive oil, sesame oil, peanut oil 108 % of control | dose: 400.0 mg/kg/injection, schedule: Q01DX009 (sc), vehicle: olive oil, sesame oil, peanut oil 98 % of control | dose: 400.0 mg/kg/injection, schedule: Q04DX003 (sc), vehicle: olive oil, sesame oil, peanut oil 96 % of control

CC(C)(C)OB(OC(C)(C)C)OC(C)(C)C
inactive: dose: 25.0 mg/kg/injection, schedule: Q01DX009 (ip), vehicle: other 105 % of control | dose: 50.0 mg/kg/injection, schedule: Q01DX009 (ip), vehicle: other 98 % of control | dose: 100.0 mg/kg/injection, schedule: Q01DX009 (ip), vehicle: other 109 % of control | [1] 98 % of control | dose: 200.0 mg/kg/injection, schedule: Q01DX009 (ip), vehicle: other 104 % of control | [2] 102 % of control | [3] 109 % of control

CCOC(=O)CCc1ccc2c(c1)OCO2
inactive: [1] 103 % of control | [2] 101 % of control | [3] 95 % of control

[N-]=[N+]=NC(=O)c1cccc2c1Cc1ccccc1-2
inactive: dose: 100.0 mg/kg/injection, schedule: Q04DX003 (ip), vehicle: saline with Tween-80 96 % of control | dose: 200.0 mg/kg/injection, schedule: Q04DX003 (ip), vehicle: saline with Tween-80 86 % of control | dose: 400.0 mg/kg/injection, schedule: Q04DX003 (ip), vehicle: saline with Tween-80 96 % of control

N#CCC(=O)NCc1cnccn1
inactive: dose: 50.0 mg/kg/injection, schedule: Q01DX005 (ip), vehicle: saline 110 % of control | dose: 100.0 mg/kg/injection, schedule: Q01DX005 (ip), vehicle: saline 104 % of control | [1] 103 % of control | dose: 200.0 mg/kg/injection, schedule: Q01DX005 (ip), vehicle: saline 105 % of control | [2] 103 % of control | dose: 400.0 mg/kg/injection, schedule: Q01DX005 (ip), vehicle: saline 105 % of control | [3] 101 % of control

OCC1C2CC3C(C2)C13 (stereo not drawn)
inactive: dose: 100.0 mg/kg/injection, schedule: Q01DX001 (ip), vehicle: carboxymethylcellulose (CMC) 101 % of control | dose: 200.0 mg/kg/injection, schedule: Q01DX001 (ip), vehicle: carboxymethylcellulose (CMC) 93 % of control | dose: 400.0 mg/kg/injection, schedule: Q01DX001 (ip), vehicle: carboxymethylcellulose (CMC) 90 % of control

COc1ccc(C(=O)/C=C/c2ccc(O)cc2)cc1
inactive: [4] 100 % of control | [5] 96 % of control | dose: 300.0 mg/kg/injection, schedule: Q04DX003 (ip), vehicle: saline 93 % of control

Nc1ncnc2c1ncn2C1CC(COP(=O)(O)O)C(O)C1O (stereo not drawn)
inactive: dose: 37.0 mg/kg/injection, schedule: Q04DX003 (ip), vehicle: saline 105 % of control | dose: 75.0 mg/kg/injection, schedule: Q01DX001 (ip), vehicle: saline 107 % of control | [4] 110 % of control | dose: 150.0 mg/kg/injection, schedule: Q01DX001 (ip), vehicle: saline 87 % of control | [5] 100 % of control

CCCCCCCCCCC(CCCCCCCCCC)CC1CCCCC1
inactive: dose: 100.0 mg/kg/injection, schedule: Q01DX001 (ip), vehicle: saline + alcohol 102 % of control | dose: 200.0 mg/kg/injection, schedule: Q01DX001 (ip), vehicle: saline + alcohol 94 % of control | dose: 400.0 mg/kg/injection, schedule: Q01DX001 (ip), vehicle: saline + alcohol 100 % of control

CCCCCCCCCCCCCCCCNC(=S)N/N=C/C(C)=N/NC(=S)NCCCCCCCCCCCCCCCC
inactive: dose: 15.0 mg/kg/injection, schedule: Q01DX Z (ip), vehicle: carboxymethylcellulose (CMC) 101 % of control | dose: 30.0 mg/kg/injection, schedule: Q01DX Z (ip), vehicle: carboxymethylcellulose (CMC) 107 % of control | dose: 60.0 mg/kg/injection, schedule: Q01DX Z (ip), vehicle: carboxymethylcellulose (CMC) 100 % of control and 104 % of control | dose: 120.0 mg/kg/injection, schedule: Q01DX Z (ip), vehicle: carboxymethylcellulose (CMC) 95 % of control and 98 % of control | dose: 240.0 mg/kg/injection, schedule: Q01DX Z (ip), vehicle: carboxymethylcellulose (CMC) 100 % of control

FC1(F)SC2c3ccccc3CC2C1(F)F (stereo not drawn)
inactive: dose: 100.0 mg/kg/injection, schedule: Q01DX009 (ip), vehicle: Klucel (hydroxypropylcellulose) (HPC) 97 % of control | dose: 200.0 mg/kg/injection, schedule: Q01DX009 (ip), vehicle: Klucel (hydroxypropylcellulose) (HPC) 101 % of control | dose: 400.0 mg/kg/injection, schedule: Q01DX009 (ip), vehicle: Klucel (hydroxypropylcellulose) (HPC) 95 % of control

N#Cc1ccc(OCCCCCOc2ccc(C#N)cc2I)c(I)c1
inactive: dose: 25.0 mg/kg/injection, schedule: Q04DX002 (ip), vehicle: Klucel (hydroxypropylcellulose) (HPC) 100 % of control | dose: 50.0 mg/kg/injection, schedule: Q04DX002 (ip), vehicle: Klucel (hydroxypropylcellulose) (HPC) 100 % of control | dose: 100.0 mg/kg/injection, schedule: Q04DX002 (ip), vehicle: Klucel (hydroxypropylcellulose) (HPC) 95 % of control and 97 % of control | dose: 200.0 mg/kg/injection, schedule: Q04DX002 (ip), vehicle: Klucel (hydroxypropylcellulose) (HPC) 89 % of control | dose: 400.0 mg/kg/injection, schedule: Q04DX002 (ip), vehicle: Klucel (hydroxypropylcellulose) (HPC) 94 % of control

CC(=O)OC12CC[N+]3(C)CCCCC3C1=Nc1ccccc12 (stereo not drawn)
inactive: dose: 6.25 mg/kg/injection, schedule: Q01DX009 (ip), vehicle: saline 98 % of control | dose: 10.0 mg/kg/injection, schedule: Q01DX001 (ip), vehicle: carboxymethylcellulose (CMC) 102 % of control | dose: 12.5 mg/kg/injection, schedule: Q01DX009 (ip), vehicle: saline 102 % of control | dose: 20.0 mg/kg/injection, schedule: Q01DX001 (ip), vehicle: carboxymethylcellulose (CMC) 105 % of control | dose: 25.0 mg/kg/injection, schedule: Q01DX009 (ip), vehicle: saline 102 % of control | dose: 25.0 mg/kg/injection, schedule: Q04DX003 (ip), vehicle: saline 103 % of control | dose: 40.0 mg/kg/injection, schedule: Q01DX001 (ip), vehicle: carboxymethylcellulose (CMC) 100 % of control | dose: 80.0 mg/kg/injection, schedule: Q01DX001 (ip), vehicle: carboxymethylcellulose (CMC) 102 % of control

Cc1ccc(N=Nc2c(N)nc(N)[nH]c2=O)cc1C
inactive: dose: 100.0 mg/kg/injection, schedule: Q01DX001 (ip), vehicle: saline 100 % of control | dose: 200.0 mg/kg/injection, schedule: Q01DX001 (ip), vehicle: saline 96 % of control | dose: 400.0 mg/kg/injection, schedule: Q01DX001 (ip), vehicle: saline 96 % of control

COC1OC2COc3ccccc3OC2C(NC#N)C1O (stereo not drawn)
inactive: dose: 100.0 mg/kg/injection, schedule: Q01DX009 (ip), vehicle: saline with Tween-80 97 % of control | dose: 200.0 mg/kg/injection, schedule: Q01DX009 (ip), vehicle: saline with Tween-80 96 % of control | dose: 400.0 mg/kg/injection, schedule: Q01DX009 (ip), vehicle: saline with Tween-80 89 % of control

CCc1ccc(OC/C=C(/C)CC/C=C(\C)CCC=C(C)C)cc1
inactive: dose: 100.0 mg/kg/injection, schedule: Q04DX002 (ip), vehicle: saline with Tween-80 110 % of control | dose: 200.0 mg/kg/injection, schedule: Q04DX002 (ip), vehicle: saline with Tween-80 97 % of control | dose: 400.0 mg/kg/injection, schedule: Q04DX002 (ip), vehicle: saline with Tween-80 87 % of control

CCOC(=O)CCC(C)=O
inactive: dose: 100.0 mg/kg/injection, schedule: Q01DX009 (ip), vehicle: saline 102 % of control | dose: 200.0 mg/kg/injection, schedule: Q01DX009 (ip), vehicle: saline 96 % of control | dose: 400.0 mg/kg/injection, schedule: Q01DX009 (ip), vehicle: saline 96 % of control
